In brackets after ≈: the same amount, converted by molar mass. Activity calls are given as the source filed them. No cut-off for these calls is given here.
Assays:
Candida albicans [1] = experiment: Antifungal activity against azole-resistant Candida albicans 64124 assessed as inhibition of fungal growth incubated for 48 hrs by two-fold dilution method; type: functional
Candida albicans [2] = experiment: Antifungal activity against Candida albicans MYA2876 assessed as inhibition of fungal growth incubated for 48 hrs by two-fold dilution method; type: functional
Cryptococcus neoformans [3] = experiment: Antifungal activity against Cryptococcus neoformans H99 assessed as inhibition of fungal growth incubated for 48 hrs by two-fold dilution method; type: functional
Candida parapsilosis [4] = experiment: Antifungal activity against azole-resistant Candida parapsilosis Cas08-0490 assessed as inhibition of fungal growth incubated for 48 hrs by two-fold dilution method; type: functional; settings: Lodderomyces parapsilosis
Candida tropicalis [5] = experiment: Antifungal activity against Candida tropicalis 95-41 assessed as inhibition of fungal growth incubated for 48 hrs by two-fold dilution assay; type: functional
Diutina rugosa [6] = experiment: Antifungal activity against Candida rugosa 95-967 assessed as inhibition of fungal growth incubated for 48 hrs by two-fold dilution assay; type: functional
Cryptococcus neoformans [7] = experiment: Antifungal activity against Cryptococcus neoformans VR-54 assessed as inhibition of fungal growth incubated for 48 hrs by two-fold dilution assay; type: functional
Escherichia coli = experiment: Antibacterial activity against Escherichia coli ATCC 25922 assessed as inhibition of bacterial growth incubated for 18 hrs by two-fold dilution method; type: functional
Staphylococcus aureus = experiment: Antibacterial activity against Staphylococcus aureus ATCC 25923 assessed as inhibition of bacterial growth incubated for 18 hrs by two-fold dilution method; type: functional
[8] = Cytotoxicity against human HeLa cells assessed as reduction in cell viability incubated for 24 hrs by MTT assay; type: toxicity, cell-based
Cell membrane [9] = experiment: Induction of membrane permeabilization in Candida albicans MYA2876 assessed as pore formation by measuring increase in fluorescence intensity at 1/4X MIC measured after 5 mins by SYTOX Green dye based fluorescence analysis
Cell membrane [10] = experiment: Induction of membrane permeabilization in Candida albicans 64124 assessed as pore formation by measuring increase in fluorescence intensity at 1/4X MIC measured after 5 mins by SYTOX Green dye based fluorescence analysis
Cell membrane [11] = experiment: Induction of membrane permeabilization in azole-resistant Candida parapsilosis Cas08-0490 assessed as pore formation by measuring fluorescence intensity at 256 ug/ml measured after 25 mins by SYTOX Green dye based fluorescence analysis; type: subcellular; settings: dose 256.0 µg/ml
Cell membrane [12] = experiment: Induction of membrane permeabilization in Candida rugosa 95-967 assessed as pore formation by measuring fluorescence intensity at 256 ug/ml measured after 25 mins by SYTOX Green dye based fluorescence analysis; type: subcellular; settings: Diutina rugosa, dose 256.0 µg/ml
Candida albicans [13] = experiment: Antifungal activity against azole-resistant Candida albicans 64124 assessed as fractional inhibitory concentration index incubated for 48 hrs in presence of kanamycin by microdilution checkerboard assay; type: functional
Candida albicans [14] = experiment: Antifungal activity against Candida albicans MYA2876 assessed as fractional inhibitory concentration index incubated for 48 hrs in presence of kanamycin by microdilution checkerboard assay; type: functional
Cryptococcus neoformans [15] = experiment: Antifungal activity against Cryptococcus neoformans H99 assessed as fractional inhibitory concentration index incubated for 48 hrs in presence of kanamycin by microdilution checkerboard assay; type: functional
Candida parapsilosis [16] = experiment: Antifungal activity against azole-resistant Candida parapsilosis Cas08-0490 assessed as fractional inhibitory concentration index incubated for 48 hrs in presence of kanamycin by microdilution checkerboard assay; type: functional
Candida tropicalis [17] = experiment: Antifungal activity against Candida tropicalis 95-41 assessed as fractional inhibitory concentration index incubated for 48 hrs in presence of kanamycin by microdilution checkerboard assay; type: functional
Diutina rugosa [18] = experiment: Antifungal activity against Candida rugosa 95-967 assessed as fractional inhibitory concentration index incubated for 48 hrs in presence of kanamycin by microdilution checkerboard assay; type: functional
Cryptococcus neoformans [19] = experiment: Antifungal activity against Cryptococcus neoformans VR-54 assessed as fractional inhibitory concentration index incubated for 48 hrs in presence of kanamycin by microdilution checkerboard assay; type: functional

Cl.Cl.Cl.Cl.NC[C@H]1O[C@H](O[C@H]2[C@H](O)[C@@H](O[C@H]3O[C@H](Cn4cc(CNC(=O)c5ccccc5Cl)nn4)[C@@H](O)[C@H](N)[C@H]3O)[C@H](N)C[C@@H]2N)[C@H](O)[C@@H](O)[C@@H]1O
MIC (Candida albicans [1]): ≥ 256 µg/mL | MIC (Candida albicans [2]): ≥ 256 µg/mL | MIC (Cryptococcus neoformans [3]): 64 µg/mL | MIC (Candida parapsilosis [4]): ≥ 256 µg/mL | MIC (Candida tropicalis [5]): ≥ 256 µg/mL | MIC (Diutina rugosa [6]): ≥ 256 µg/mL | MIC (Cryptococcus neoformans [7]): ≥ 256 µg/mL | MIC (Escherichia coli): 128 µg/mL | MIC (Staphylococcus aureus): ≥ 256 µg/mL | IC50 at 24 h [8]: > 100 µg/mL

OC(Cn1cncn1)(Cn1cncn1)c1ccc(F)cc1F [FLUCONAZOLE]
MIC (Candida albicans [1]): ≥ 256 µg/mL | MIC (Candida albicans [2]): 128 µg/mL (≈ 418 µM) | MIC (Cryptococcus neoformans [3]): 1 µg/mL (≈ 3.27 µM) | MIC (Candida parapsilosis [4]): 16 µg/mL (≈ 52.2 µM) | MIC (Candida tropicalis [5]): 2 µg/mL (≈ 6.53 µM) | MIC (Diutina rugosa [6]): 8 µg/mL (≈ 26.1 µM) | MIC (Cryptococcus neoformans [7]): 1 µg/mL (≈ 3.27 µM)

NC[C@H]1O[C@H](O[C@H]2[C@H](O)[C@@H](O[C@H]3O[C@H](CO)[C@@H](O)[C@H](N)[C@H]3O)[C@H](N)C[C@@H]2N)[C@H](O)[C@@H](O)[C@@H]1O [KANAMYCIN]
MIC (Candida albicans [1]): ≥ 256 µg/mL | MIC (Candida albicans [2]): ≥ 256 µg/mL | MIC (Cryptococcus neoformans [3]): 128 µg/mL (≈ 264 µM) | MIC (Candida parapsilosis [4]): ≥ 256 µg/mL | MIC (Candida tropicalis [5]): ≥ 256 µg/mL | MIC (Diutina rugosa [6]): ≥ 256 µg/mL | MIC (Cryptococcus neoformans [7]): ≥ 256 µg/mL | MIC (Escherichia coli): 4 µg/mL (≈ 8.26 µM) | MIC (Staphylococcus aureus): 1 µg/mL (≈ 2.06 µM)

Cl.Cl.Cl.Cl.NC[C@H]1O[C@H](O[C@H]2[C@H](O)[C@@H](O[C@H]3O[C@H](Cn4cc(COC(Cn5cncn5)c5ccc(F)cc5F)nn4)[C@@H](O)[C@H](N)[C@H]3O)[C@H](N)C[C@@H]2N)[C@H](O)[C@@H](O)[C@@H]1O (stereo partly drawn)
MIC (Candida albicans [1]): ≥ 256 µg/mL | MIC (Candida albicans [2]): ≥ 256 µg/mL | MIC (Cryptococcus neoformans [3]): ≥ 256 µg/mL | MIC (Candida parapsilosis [4]): ≥ 256 µg/mL | MIC (Candida tropicalis [5]): ≥ 256 µg/mL | MIC (Diutina rugosa [6]): ≥ 256 µg/mL | MIC (Cryptococcus neoformans [7]): ≥ 256 µg/mL | MIC (Escherichia coli): ≥ 256 µg/mL | MIC (Staphylococcus aureus): ≥ 256 µg/mL | IC50 at 24 h [8]: > 100 µg/mL

Cl.Cl.Cl.Cl.NC[C@H]1O[C@H](O[C@H]2[C@H](O)[C@@H](O[C@H]3O[C@H](Cn4cc(COC(Cn5ccnc5)c5ccc(F)cc5F)nn4)[C@@H](O)[C@H](N)[C@H]3O)[C@H](N)C[C@@H]2N)[C@H](O)[C@@H](O)[C@@H]1O (stereo partly drawn)
MIC (Candida albicans [1]): 128 µg/mL | MIC (Candida albicans [2]): 128 µg/mL | MIC (Cryptococcus neoformans [3]): 64 µg/mL | MIC (Candida parapsilosis [4]): ≥ 256 µg/mL | MIC (Candida tropicalis [5]): 8 µg/mL | MIC (Diutina rugosa [6]): ≥ 256 µg/mL | MIC (Cryptococcus neoformans [7]): 128 µg/mL | MIC (Escherichia coli): 64 µg/mL | MIC (Staphylococcus aureus): 64 µg/mL | IC50 at 24 h [8]: > 100 µg/mL

Cl.Cl.Cl.Cl.NC[C@H]1O[C@H](O[C@H]2[C@H](O)[C@@H](O[C@H]3O[C@H](Cn4cc(COC(Cn5cncn5)c5ccc(Cl)cc5Cl)nn4)[C@@H](O)[C@H](N)[C@H]3O)[C@H](N)C[C@@H]2N)[C@H](O)[C@@H](O)[C@@H]1O (stereo partly drawn)
MIC (Candida albicans [1]): 16 µg/mL | MIC (Candida albicans [2]): 16 µg/mL | MIC (Cryptococcus neoformans [3]): 16 µg/mL | MIC (Candida parapsilosis [4]): ≥ 256 µg/mL | MIC (Candida tropicalis [5]): 32 µg/mL | MIC (Diutina rugosa [6]): ≥ 256 µg/mL | MIC (Cryptococcus neoformans [7]): 32 µg/mL | MIC (Escherichia coli): ≥ 256 µg/mL | MIC (Staphylococcus aureus): 128 µg/mL | IC50 at 24 h [8]: > 100 µg/mL | Activity (Cell membrane [9]): Active | Activity (Cell membrane [10]): Active | Activity (Cell membrane [11]): inactive | Activity (Cell membrane [12]): inactive

Cl.Cl.Cl.Cl.NC[C@H]1O[C@H](O[C@H]2[C@H](O)[C@@H](O[C@H]3O[C@H](Cn4cc(CNC(=O)c5ccc(Cl)cc5)nn4)[C@@H](O)[C@H](N)[C@H]3O)[C@H](N)C[C@@H]2N)[C@H](O)[C@@H](O)[C@@H]1O
MIC (Candida albicans [1]): ≥ 256 µg/mL | MIC (Candida albicans [2]): ≥ 256 µg/mL | MIC (Cryptococcus neoformans [3]): 128 µg/mL | MIC (Candida parapsilosis [4]): ≥ 256 µg/mL | MIC (Candida tropicalis [5]): ≥ 256 µg/mL | MIC (Diutina rugosa [6]): ≥ 256 µg/mL | MIC (Cryptococcus neoformans [7]): ≥ 256 µg/mL | MIC (Escherichia coli): 128 µg/mL | MIC (Staphylococcus aureus): 64 µg/mL | IC50 at 24 h [8]: > 100 µg/mL

OC(Cn1cncn1)c1ccc(Cl)cc1Cl (stereo not drawn)
MIC (Candida albicans [1]): 128 µg/mL (≈ 496 µM) | MIC (Candida albicans [2]): 64 µg/mL (≈ 248 µM) | MIC (Cryptococcus neoformans [3]): 64 µg/mL (≈ 248 µM) | MIC (Candida parapsilosis [4]): 64 µg/mL (≈ 248 µM) | MIC (Candida tropicalis [5]): 32 µg/mL (≈ 124 µM) | MIC (Diutina rugosa [6]): 64 µg/mL (≈ 248 µM) | MIC (Cryptococcus neoformans [7]): 32 µg/mL (≈ 124 µM) | fractional inhibitory concentration index (FICI) (Candida albicans [13]): 1 | fractional inhibitory concentration index (FICI) (Candida albicans [14]): 1 | fractional inhibitory concentration index (FICI) (Cryptococcus neoformans [15]): 1 | fractional inhibitory concentration index (FICI) (Candida parapsilosis [16]): 2 | fractional inhibitory concentration index (FICI) (Candida tropicalis [17]): 1.5 | fractional inhibitory concentration index (FICI) (Diutina rugosa [18]): 2.25 | fractional inhibitory concentration index (FICI) (Cryptococcus neoformans [19]): 1

Cl.Cl.Cl.Cl.NC[C@H]1O[C@H](O[C@H]2[C@H](O)[C@@H](O[C@H]3O[C@H](Cn4cc(CNC(=O)c5ccc(Cl)cc5Cl)nn4)[C@@H](O)[C@H](N)[C@H]3O)[C@H](N)C[C@@H]2N)[C@H](O)[C@@H](O)[C@@H]1O
MIC (Candida albicans [1]): ≥ 256 µg/mL | MIC (Candida albicans [2]): ≥ 256 µg/mL | MIC (Cryptococcus neoformans [3]): ≥ 256 µg/mL | MIC (Candida parapsilosis [4]): ≥ 256 µg/mL | MIC (Candida tropicalis [5]): ≥ 256 µg/mL | MIC (Diutina rugosa [6]): ≥ 256 µg/mL | MIC (Cryptococcus neoformans [7]): ≥ 256 µg/mL | MIC (Escherichia coli): 128 µg/mL | MIC (Staphylococcus aureus): 128 µg/mL | IC50 at 24 h [8]: > 100 µg/mL

Cl.Cl.Cl.Cl.NC[C@H]1O[C@H](O[C@H]2[C@H](O)[C@@H](O[C@H]3O[C@H](Cn4cc(COC(Cn5ccnc5)c5ccc(Cl)cc5Cl)nn4)[C@@H](O)[C@H](N)[C@H]3O)[C@H](N)C[C@@H]2N)[C@H](O)[C@@H](O)[C@@H]1O (stereo partly drawn)
MIC (Candida albicans [1]): 32 µg/mL | MIC (Candida albicans [2]): 128 µg/mL | MIC (Cryptococcus neoformans [3]): 64 µg/mL | MIC (Candida parapsilosis [4]): ≥ 256 µg/mL | MIC (Candida tropicalis [5]): 64 µg/mL | MIC (Diutina rugosa [6]): ≥ 256 µg/mL | MIC (Cryptococcus neoformans [7]): 64 µg/mL | MIC (Escherichia coli): ≥ 256 µg/mL | MIC (Staphylococcus aureus): 128 µg/mL | IC50 at 24 h [8]: > 100 µg/mL | Activity (Cell membrane [9]): Active | Activity (Cell membrane [10]): Active | Activity (Cell membrane [11]): inactive | Activity (Cell membrane [12]): inactive

Source: ChEMBL document CHEMBL6092189, “Synthesis of kanamycin-azole hybrids and investigation of their antifungal activities” (Bioorg Med Chem, 2024)
